ChEMBL document CHEMBL4028802, “DILIrank: the largest reference drug list ranked by the risk for developing drug-induced liver injury in humans” (Drug Discov Today, 2016)
Starred links: 1 amine or outer side, 2 acyl side, 3 side chain; linkers in the order of their positions; H or OH if unused. Positions of bridges follow the written chain, without caps; N, C: chain ends. Non-standard residues stand in square brackets, D forms with d. Residues, ends and D or L forms follow the SMILES beside them. Chains are numbered I, II in the order given. Actinocin(9to1) = Cc1c2oc3c(C)ccc(C(=O)[*:1])c3nc-2c(C(=O)[*:2])c(N)c1=O; NMeV = CN[C@H](C(=O)O)C(C)C; Sar = CNCC(=O)O

Columns and labels:
Homo sapiens [1] = species on record: Homo sapiens; assay: Liver toxicity in human assessed as induction of drug-induced liver injury by measuring verified drug-induced liver injury concern status
Homo sapiens [2] = species on record: Homo sapiens; assay: Liver toxicity in human assessed as induction of drug-induced liver injury by measuring severity class index
Throughout, for DILI severity class: key of the grades not given here.

Row | Molecule | DILI_Concern (Homo sapiens [1]) | DILI_severity_class (Homo sapiens [2])
1 | CC(=O)O.CCNC(=O)[C@@H]1CCCN1C(=O)[C@H](CCCNC(=N)N)NC(=O)[C@H](CC(C)C)NC(=O)[C@@H](Cc1cn(Cc2ccccc2)cn1)NC(=O)[C@H](Cc1ccc(O)cc1)NC(=O)[C@H](CO)NC(=O)[C@H](Cc1c[nH]c2ccccc12)NC(=O)[C@H](Cc1cnc[nH]1)NC(=O)[C@@H]1CCC(=O)N1 [HISTRELIN ACETATE] | Ambiguous-Dili-Concern | 3
2 | Cc1cn([C@@H]2C[C@@H](O)[C@H](CO)O2)c(=O)[nH]c1=O [TELBIVUDINE] | Ambiguous-Dili-Concern | 2
3 | COc1cc2ncnc(Nc3ccc(F)c(Cl)c3)c2cc1OCCCN1CCOCC1 [GEFITINIB] | Most-Dili-Concern | 4
4 | CSCC[C@H](N)C(=O)O [METHIONINE] | No-Dili-Concern | 0
5 | C#C[C@@]1(OC(C)=O)CC[C@H]2[C@@H]3CCC4=CC(=O)CC[C@@H]4[C@H]3CC[C@@]21C | No-Dili-Concern | 0
6 | CN1CC(=O)N2[C@H](c3ccc4c(c3)OCO4)c3[nH]c4ccccc4c3C[C@@H]2C1=O | Ambiguous-Dili-Concern | 3
7 | CN1CCN(CCCN2c3ccccc3Sc3ccc(Cl)cc32)CC1 [PROCHLORPERAZINE] | Less-Dili-Concern | 2
8 | Cc1nnc(C(C)C)n1[C@@H]1C[C@H]2CC[C@@H](C1)N2CC[C@H](NC(=O)C1CCC(F)(F)CC1)c1ccccc1 [MARAVIROC] | Most-Dili-Concern | 3
9 | CN1CCN(C2=Nc3cc(Cl)ccc3Nc3ccccc32)CC1 [CLOZAPINE] | Most-Dili-Concern | 5
10 | CN(C)CCC(c1ccc(Cl)cc1)c1ccccn1 (configuration not stated) [CHLORPHENIRAMINE] | No-Dili-Concern | 0
11 | Nc1ccc(S(=O)(=O)Nc2nccs2)cc1 [SULFATHIAZOLE] | Most-Dili-Concern | 8
12 | COc1cc2nc(N3CCN(C(=O)C4COc5ccccc5O4)CC3)nc(N)c2cc1OC (configuration not stated) [DOXAZOSIN] | Ambiguous-Dili-Concern | 3
13 | CC(C)(O/N=C(\C(=O)N[C@@H]1C(=O)N2C(C(=O)[O-])=C(C[n+]3ccccc3)CS[C@H]12)c1csc(N)n1)C(=O)O [CEFTAZIDIME] | Less-Dili-Concern | 3
14 | CO/N=C(\C(=O)N[C@@H]1C(=O)N2C(C(=O)O)=C(/C=C\c3scnc3C)CS[C@H]12)c1csc(N)n1 [CEFDITOREN] | Ambiguous-Dili-Concern | 2
15 | O=C(COc1ccc(Cl)cc1)N1CCN(Cc2ccc3c(c2)OCO3)CC1 [FIPEXIDE] | Most-Dili-Concern | 8
16 | C[C@H](CCC(=O)O)[C@H]1CC[C@H]2[C@@H]3[C@H](O)C[C@@H]4C[C@H](O)CC[C@]4(C)[C@H]3CC[C@]12C [CHENODIOL] | Ambiguous-Dili-Concern | 8
17 | Cc1cnc(C(=O)NCCc2ccc(S(=O)(=O)NC(=O)NC3CCCCC3)cc2)cn1 [GLIPIZIDE] | Less-Dili-Concern | 3
18 | CCOc1ccccc1OCCN[C@H](C)Cc1ccc(OC)c(S(N)(=O)=O)c1 [TAMSULOSIN] | Less-Dili-Concern | 0
19 | CC(C)Cc1ccc(C(C)C(=O)O)cc1 (configuration not stated) [IBUPROFEN] | Less-Dili-Concern | 3

Row | Molecule | DILI_Concern (Homo sapiens [1]) | DILI_severity_class (Homo sapiens [2])
20 | CNC(=O)c1cc(Oc2ccc(NC(=O)Nc3ccc(Cl)c(C(F)(F)F)c3)cc2)ccn1 [SORAFENIB] | Most-Dili-Concern | 8
21 | Cc1ccc(/C(=C\CN2CCCC2)c2ccccn2)cc1 [TRIPROLIDINE] | No-Dili-Concern | 0
22 | CNC1=Nc2ccc(Cl)cc2C(c2ccccc2)=[N+]([O-])C1 [CHLORDIAZEPOXIDE] | Less-Dili-Concern | 5
23 | CCC1(c2ccccc2)C(=O)NCNC1=O [PRIMIDONE] | No-Dili-Concern | 0
24 | C[C@@H]1O[C@@H]1P(=O)(O)O [FOSFOMYCIN] | Less-Dili-Concern | 6
25 | COc1ccc(C(CN(C)C)C2(O)CCCCC2)cc1 (configuration not stated) [VENLAFAXINE] | Less-Dili-Concern | 7
26 | N[C@@H](CC(=O)N1CCn2c(nnc2C(F)(F)F)C1)Cc1cc(F)c(F)cc1F [SITAGLIPTIN] | Less-Dili-Concern | 4
27 | CO/N=C(\C(=O)N[C@@H]1C(=O)N2C(C(=O)O)=C(CSc3nc(=O)c(=O)[nH]n3C)CS[C@H]12)c1csc(N)n1 [CEFTRIAXONE] | Less-Dili-Concern | 4
28 | O=C1CCc2cc(OCCCCc3nnnn3C3CCCCC3)ccc2N1 [CILOSTAZOL] | Ambiguous-Dili-Concern | 5
29 | CCOC(=O)c1ncn2c1CN(C)C(=O)c1cc(F)ccc1-2 [FLUMAZENIL] | No-Dili-Concern | 0
30 | Cc1c(O)cccc1C(=O)N[C@@H](CSc1ccccc1)[C@H](O)CN1C[C@H]2CCCC[C@H]2C[C@H]1C(=O)NC(C)(C)C | Less-Dili-Concern | 3
31 | C[C@@H](c1ncncc1F)[C@](O)(Cn1cncn1)c1ccc(F)cc1F [VORICONAZOLE] | Most-Dili-Concern | 8
32 | CC1(C)S[C@@H]2[C@H](NC(=O)[C@H](N)c3ccccc3)C(=O)N2[C@H]1C(=O)O [AMPICILLIN] | Less-Dili-Concern | 3
33 | Nc1nc2ncc(CNc3ccc(C(=O)N[C@@H](CCC(=O)O)C(=O)O)cc3)nc2c(=O)[nH]1 [FOLIC ACID] | No-Dili-Concern | 0
34 | Nc1ccn(C[C@@H](CO)OCP(=O)(O)O)c(=O)n1.O.O [CIDOFOVIR] | Ambiguous-Dili-Concern | 5
35 | N[C@@H](C(=O)N[C@@H]1C(=O)N2C(C(=O)O)=C(Cl)CC[C@H]12)c1ccccc1 [LORACARBEF ANHYDROUS] | Less-Dili-Concern | 3
36 | CCC[C@@H]1C[C@@H](C(=O)N[C@@H]([C@H]2O[C@H](SC)[C@H](O)[C@@H](O)[C@H]2O)[C@H](C)Cl)N(C)C1 [CLINDAMYCIN] | Less-Dili-Concern | 3
37 | NC(=O)CC[C@@H]1NC(=O)[C@H](Cc2ccccc2)NC(=O)[C@H](Cc2ccc(O)cc2)NC(=O)[C@@H](N)CSSC[C@@H](C(=O)N2CCC[C@H]2C(=O)N[C@@H](CCCN=C(N)N)C(=O)NCC(N)=O)NC(=O)[C@H](CC(N)=O)NC1=O [VASOPRESSIN] | No-Dili-Concern | 0
38 | CCOC(=O)C1(c2ccccc2)CCN(CCC(C#N)(c2ccccc2)c2ccccc2)CC1 [DIPHENOXYLATE] | No-Dili-Concern | 0

Row | Molecule | DILI_Concern (Homo sapiens [1]) | DILI_severity_class (Homo sapiens [2])
39 | O=NN(CCCl)C(=O)NC1CCCCC1 [LOMUSTINE] | Less-Dili-Concern | 3
40 | CCOc1nc2cccc(C(=O)O)c2n1Cc1ccc(-c2ccccc2-c2nnn[nH]2)cc1 | Less-Dili-Concern | 3
41 | CCCN[C@H]1CCc2nc(N)sc2C1 [PRAMIPEXOLE] | Ambiguous-Dili-Concern | 2
42 | CN1CCN2c3ncccc3Cc3ccccc3C2C1 (configuration not stated) [MIRTAZAPINE] | Less-Dili-Concern | 3
43 | COc1cccc2c1[C@@H]1CN(CCCCn3c(=O)[nH]c4c(sc5ncc(-c6ccccc6)nc54)c3=O)C[C@@H]1CO2 [FIDUXOSIN] | Most-Dili-Concern | 8
44 | C[C@H]1COc2c(N3CCN(C)CC3)c(F)cc3c(=O)c(C(=O)O)cn1c23.C[C@H]1COc2c(N3CCN(C)CC3)c(F)cc3c(=O)c(C(=O)O)cn1c23.O [LEVOFLOXACIN] | Most-Dili-Concern | 8
45 | COc1ccc([C@@H]2Sc3ccccc3N(CCN(C)C)C(=O)[C@@H]2OC(C)=O)cc1 [DILTIAZEM] | Most-Dili-Concern | 4
46 | N[C@@H](Cc1ccc(N(CCCl)CCCl)cc1)C(=O)O | Less-Dili-Concern | 5
47 | CN(C)c1ccc(O)c2c1C[C@H]1C[C@H]3[C@H](N(C)C)C(O)=C(C(N)=O)C(=O)[C@@]3(O)C(O)=C1C2=O [MINOCYCLINE] | Most-Dili-Concern | 8
48 | LANTHANUM CARBONATE | No-Dili-Concern | 0
49 | CC(C)NCC(O)c1ccc(NS(C)(=O)=O)cc1 (configuration not stated) [SOTALOL] | Ambiguous-Dili-Concern | 3
50 | Cc1c2oc3c(C)ccc(C(=O)N[C@@H]4C(=O)N[C@H](C(C)C)C(=O)N5CCC[C@H]5C(=O)N(C)CC(=O)N(C)[C@@H](C(C)C)C(=O)O[C@@H]4C)c3nc-2c(C(=O)N[C@@H]2C(=O)N[C@H](C(C)C)C(=O)N3CCC[C@H]3C(=O)N(C)CC(=O)N(C)[C@@H](C(C)C)C(=O)O[C@@H]2C)c(N)c1=O [DACTINOMYCIN] (I: T[dV]P[Sar][NMeV] / II: T[dV]P[Sar][NMeV]; ester I:1-I:C, II:1-II:C; linker I:N-II:N via Actinocin(9to1)) | Most-Dili-Concern | 8
51 | COc1ccccc1OCCNCC(O)COc1cccc2[nH]c3ccccc3c12 (configuration not stated) [CARVEDILOL] | Less-Dili-Concern | 3
52 | CCCN(CCC)C(=O)Cc1c(-c2ccc(Cl)cc2)nc2ccc(Cl)cn12 [ALPIDEM] | Most-Dili-Concern | 8
53 | C[C@H]1[C@H](c2ccccc2)OCCN1C [PHENDIMETRAZINE] | No-Dili-Concern | 0
54 | Cc1cccc([C@H](C)c2cnc[nH]2)c1C [DEXMEDETOMIDINE] | Ambiguous-Dili-Concern | 4
55 | CN(C)CC[C@@H](c1ccc(Cl)cc1)c1ccccn1 [DEXCHLORPHENIRAMINE] | No-Dili-Concern | 0
56 | CC(C)NCC(O)c1cc(O)cc(O)c1 (configuration not stated) [METAPROTERENOL] | No-Dili-Concern | 0
